From publication PMC9298260, “An Immunomodulatory Peptide Dendrimer Inspired from Glatiramer Acetate” (Angewandte Chemie (International Ed. in English), 2021)

How the values were obtained:
[1] = Circular dichroism spectroscopy; assay type: physicochemical; conditions: 100 μg/mL, 8 mM phosphate buffer pH 7.2/7.4
Method: In terms of stereochemistry, activity was lost with D‐enantiomers D‐1 and D‐4, similar to the inactivity reported for D‐enantiomeric GA.[2]
Circular dichroism (CD) experiments were measured on a Jasco J-715 Spectropolarimeter. All the experiments were performed using Hellma Suprasil 110-QS 0.1 cm cuvettes. For each peptide, the measurements were performed in phosphate buffer (PB, pH=7.2, 8 mM) and in the presence of 5 mM dodecylphosphocholine. The concentration of the peptides was 100.0 μg/mL and each sample was measured using one accumulation. The scan rate was 10 nm/min, pitch 0.5 nm, response 16 sec and bandwidth 1.0 nm. The nitrogen flow was kept >8.5 L/min. After each measurement, the cuvettes were washed successively with 1 M HCl, milli-Q H2O and PB buffer. The baseline was recorded under the same conditions and subtracted manually.
Figure S12. Circular dichroism spectra of GA, 1 and 4 (100 μg/mL) in 8 mM phosphate buffer at pH 7.4 (a) or in presence of 5 mM dodecylphosphocholine. Percentage of α-helix and β- sheet was processed by Dichroweb using the CONTIN analysis program and reference set 3.
(1 picture or pasted object on this page, not shown here)

[2] = test system: lymphocytes; test: IL-1Ra in supernatants of lymphocytes (rest of leukocytes after Percoll), ELISA; assay type: cell-based, human; conditions: rest of leukocytes after Percoll gradient, 50-25 µg/mL, 48 h, n = 2
Method: Similar donor dependent responses of cytokine release to GA have been reported for IL‐27.[38]
(§1) Figure S3. Cytokine level of IL-1Ra in supernatants of monocytes for active dendrimers and analogues evaluated by ELISA assay on primary human monocytes of healthy donors. 5×10^4 cells/200 µL in 96 well plates, were incubated with dendrimers or GA as a control for 48 h in presence or absence of LPS (100 ng/mL), in a range of concentrations (100-12.5 µg/mL) (mean ± SD, n = 3 different experiments).
Figure S4. Cytokine level of IL-1Ra in supernatants of monocytes enriched fraction (a) and the rest of leukocytes (b) for active dendrimers and analogues evaluated by ELISA assay.
Monocytes fraction was separated from whole PBMC by Percoll density gradient centrifugation. 5×10^4 cells/200 µL in 96 well plates were incubated with dendrimers or GA (50-25 µg/mL) as a control for 48 h (mean ± SD, n = 2 different experiments). […]

[3] = cited from earlier work
[4] = test system: IL-1Ra release from human primary monocytes; test: IL-1Ra release from human primary monocytes, immunoassay (ELISA) of supernatants; assay type: cell-based; parameters: key: +: Ability to induce IL‐1Ra on primary monocytes after 48 h of incubation in the presence of 25–50 μg mL^−1 compound; Ability to induce IL‐1Ra on primary monocytes after 48 h of incubation in the presence of 25–50 μg mL^−1 compound; conditions: Table 1, 48 h, 25–50 μg mL^−1 compound
Method: As an activity screen we focused on interleukin‐1 receptor antagonist (IL‐1Ra), a cytokine released by circulating antigen presenting cells (APC) in response to GA.[15, 35] […] To test our dendrimers, we quantified by immunoassay the release of IL‐1Ra from human primary monocytes of healthy donors, an easily accessible type of APC, stimulated or not by addition of lipopolysaccharide (LPS), which in our hands provided a reliable read‐out.[15] We tested at defined weight/volume (25 and 50 μg mL^−1 compound as typically reported for GA)[15, 35] to account for a possible activity increase with MW as often observed with dendrimers when using molarity. In the initial screen the levels of secreted IL‐1Ra remained below 1 ng mL^−1 for all the smaller test compounds as well as with the linear peptide analogs of GA.
Figure 2 Cytokine level of IL‐1Ra in supernatants of primary human monocytes of healthy donors treated with peptide dendrimers, evaluated by ELISA (bars, left vertical axis) and mRNA levels (▴, right vertical axis). […] For mRNA levels evaluation, 2×10^6 cells 3 mL^−1 in 6 well plates were incubated with 50 μg mL^−1 dendrimer or GA for 18 h. […]
Enzyme-linked immunosorbent assay (ELISA)
Monocytes (5×10^4 cells/200 μL well; 96-well plates) were preincubated for 1 h with or without compounds in RPMI-1640 medium supplemented with 10% heat-inactivated FBS, 50 μg/mL streptomycin, 50 U/mL penicillin, 2 mM L-glutamine, and 5 μg/mL polymyxin B sulfate and then cultured for 48 h in the presence or absence of LPS (100 ng/mL) (2). The production of IL-1Ra was measured in culture supernatants by commercially available enzyme immunoassay according to manufacture protocol.
as §1, with “S2.” for “S3.”, “(50-25” for “(100-12.5”, “2” for “3”, “experiments). The results are present as the difference between each sample and the non-treated sample to take into account the difference between base line for each donor.” for “experiments).”
Figure S3. Cytokine level of IL-1Ra in supernatants of monocytes for active dendrimers and […]
presence or absence of LPS (100 ng/mL), in a range of concentrations (100-12.5 µg/mL) (mean ± SD, n = 3 different experiments). […]

conformation by CD spectra [1]: α‐helical
Substance: Glatiramer acetate [GA, reference compound]
induction of IL-1Ra in lymphocytes [2]: did not occur
crossing of the BBB [3]: does not cross the BBB
Act. (ability to induce IL-1Ra) [4]: +
